From PubChem BioAssay AID2286 (Southern Research Specialized Biocontainment Screening …, 2010) come the findings set out here.

Molecules are shown by their SMILES. Active and inactive are the calls of the source.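 The calls were made as follows: active = minimum cell viability of 80% or lower across the dose range, counted as toxic; inactive = minimum cell viability above 80%.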

A short description of this assay: MAGI-CCR5 and HeLa-R5-16 cytotoxicity, dose response, cytotoxicity control for HIV-1 fusion inhibitor project, cell-based, MAGI and MAGI-HeLa co-culture (AID 2286).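 As to all read-outs here: cells exposed to compound for at least 64 h before ATP readout; 100% = median of DMSO vehicle wells with no ATP signal meaning 0%.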 The following applies: MAGI-CCR5 cells viability, CellTiter-Glo ATP luminescence; for minimum viability: measured here: MAGI minimum viability across doses.
The mark [1] stands for this setting: MAGI-HeLa co-culture viability, at 50 µM, stronger effect = lower value.
[2] abbreviates: at 0.39 µM, stronger effect = lower value.
[3] abbreviates: at 3.13 µM, stronger effect = lower value.
Where [4] appears, read: at 12.5 µM, stronger effect = lower value.

The viability is a read-out of living cells in per cent, often relative to untreated cells. Regarding `O=C(O)c1cc(NN=C2c3ccccc3-c3ccccc32)ccc1Cl`, the viability runs as follows: under setting [1], 114%; (at 50 µM (top of the series)) 93.1% (inactive). Where the note is “at 50 µM, stronger effect = lower value”, the minimum viability came out at 93.1%.
In the case of `COc1ccc(C(=O)Nc2ccccc2C(=O)O)cc1NC(=O)C(c1ccccc1)c1ccccc1`, the viability is 116% under setting [1] and 99.7% (inactive) (at 50 µM (top of the series)). Besides, the minimum viability (at 6.25 µM, stronger effect = lower value) was 89.1%.
As to `Cc1cn2c(N)c(C=C3C=C(Cl)C(=O)C(Cl)=C3)c(=O)nc2s1`, the viability under setting [1] stood at 105% and the viability (at 50 µM (top of the series)) was 83.9% (inactive). The minimum viability (at 25 µM, stronger effect = lower value) is 81.8%.
Take `CC(/C=C1\SC(=S)N(c2ccc(C(=O)O)cc2)C1=O)=C\c1ccccc1`: the viability was 88% under setting [1] and 99.7% (inactive) (at 50 µM (top of the series)). The minimum viability under setting [2] worked out at 96.6%.
`CC(C)c1ccc(OCC(=O)Nc2cccc(C(=O)Nc3ccccc3C(=O)O)c2)cc1`: the viability under setting [1] turned out to be 96.4% and the viability (at 50 µM (top of the series)) was 84% (inactive). The minimum viability (at 50 µM, stronger effect = lower value) was determined as 84%.
Consider `CC1=C(C(=O)Nc2ccccc2)C(c2ccc(Cl)cc2)n2c(s/c(=C/c3cccc(OCC(=O)O)c3)c2=O)=N1` (stereo unspecified), for which the viability was 127% under setting [1] and 114% (inactive) (at 50 µM (top of the series)). Under setting [3], the minimum viability was found to be 104%.
Take `N=C1/C(=C\c2ccc(-c3cccc(C(=O)O)c3)o2)C(=O)N=C2SC=C(c3ccccc3)N12`: the viability is 103% under setting [1] and 81% (inactive) (at 50 µM (top of the series)). Under setting [4], the minimum viability came out at 80.3%.
For the molecule `O=C(O)c1[nH]c2ccccc2c1C(c1ccccc1)c1c(C(=O)O)[nH]c2ccccc12`, the viability is, setting by setting: under setting [1], 93.2%; (at 50 µM (top of the series)) 86% (inactive). Further, the minimum viability under setting [4] came out at 81.8%.
As to `O=C1N/C(=N\S(=O)(=O)c2ccccc2)S/C1=C\c1cc([N+](=O)[O-])ccc1O`, the viability is, setting by setting: under setting [1], 107%; (at 50 µM (top of the series)) 93.8% (inactive). Further, the minimum viability under setting [4] was determined as 88.1%.
Taken in the same sequence, the figures for `O=C(CN1C(=O)S/C(=C\C=C\c2ccccc2)C1=O)Nc1ccccc1C(=O)O` were 103%, 90.4% (inactive) and 83.6%.
Take `CCOC(=O)C1=C(C)N=c2s/c(=C\c3ccc(OCC(=O)O)cc3)c(=O)n2C1c1ccc(OC(C)C)cc1` (stereo unspecified): the viability under setting [1] was found to be 105%. For the same molecule, the minimum viability (at 50 µM, stronger effect = lower value) stood at 65.8%.
For `CCOc1cc(/C=C2\SC(=O)N(CC(=O)Nc3ccccc3F)C2=O)cc([N+](=O)[O-])c1O` the same measures were 114% and 77.4%.
As for `COc1ccc(NS(=O)(=O)c2ccc3c(c2)[C@H]2C=CC[C@H]2[C@@H](c2ccc(C(=O)O)cc2)N3)cc1`, the viability by setting is: under setting [1], 130%; (at 50 µM (top of the series)) 99.7% (inactive). Further, the minimum viability under setting [3] was 95.3%.
Taken in the same sequence, the figures for `CCCCCCc1c(C)c2ccc(OCC(=O)N[C@@H](Cc3ccccc3)C(=O)O)cc2oc1=O` were 101%, 96.7% (inactive) and 90.1%.
Turning to `Cc1ccc(S(=O)(=O)Oc2ccc(/C=C3/C(=N)N4C(=NC3=O)SN=C4S(C)(=O)=O)cc2)cc1`, under setting [1], the viability was found to be 104%. Besides, the minimum viability (at 50 µM, stronger effect = lower value) amounted to 78.9%.
Turning to `O=C(O)c1[nH]c2ccccc2c1C(c1cc(Cl)cc([N+](=O)[O-])c1O)c1c(C(=O)O)[nH]c2ccccc12`, the viability is 96.1% under setting [1] and 99.1% (inactive) (at 50 µM (top of the series)). In addition, the minimum viability under setting [4] worked out at 93.4%.
Regarding `N#Cc1c(SCC(=O)Nc2nc3ccc(Br)cc3s2)sc2c(O)cc(=O)[nH]c12`, the viability under setting [1] worked out at 81.1% and the viability (at 50 µM (top of the series)) was 83.3% (inactive). The minimum viability (at 50 µM, stronger effect = lower value) amounted to 83.3%.
Taken in the same sequence, the figures for `CCOC(=O)C1=C(C)N=c2s/c(=C/c3ccc(OCC(=O)O)cc3)c(=O)n2C1c1ccc(SC)cc1` (stereo unspecified) were 101%, 88.1% (inactive) and 88.1%.
`CCOc1ccc(NC(=NCc2ccc3c(c2)OCO3)SC2CC(=O)N(c3ccc(C(=O)O)cc3)C2=O)cc1` (stereo unspecified): the viability reads like this: under setting [1], 81.3%; (at 25 µM (top of the series)) 84.3% (inactive). For the same molecule, the minimum viability (at 25 µM, stronger effect = lower value) was determined as 84.3%.
With `O=C(O)C(c1ccccc1)N1C(=O)/C(=C\c2ccc(O)c(O)c2)SC1=S` (stereo unspecified), the viability under setting [1] turned out to be 95.1% and the viability (at 50 µM (top of the series)) is 105% (inactive). Moreover, under setting [4], the minimum viability was 99.2%.
`N#Cc1c(-c2ccccc2)nc(SCC(=O)Nc2ccc(OC(F)(F)Cl)cc2)[nH]c1=O`: the viability under setting [1] is 102% and the viability (at 50 µM (top of the series)) is 96.6% (inactive). Further, for the setting “at 25 µM, stronger effect = lower value”, the minimum viability stood at 84.9%.
On to `O=C(O)c1cc(N2N=C(C(F)(F)F)/C(=C/C=C/c3ccco3)C2=O)ccc1Cl`, for which the viability was 120% under setting [1] and 92.8% (inactive) (at 50 µM (top of the series)). For the same molecule, under setting [4], the minimum viability amounted to 84.9%.
For `COc1ccc(N=C2S/C(=C\c3ccc(OC(C)C(=O)O)c(OC)c3)C(=O)N2CCc2c[nH]c3ccccc23)cc1` (stereo unspecified), under setting [1], the viability is 148%. Further, where the note is “at 50 µM, stronger effect = lower value”, the minimum viability is 70.5%.
In the case of `COc1ccc(OC)c(/C=C2\SC(=S)N(NS(=O)(=O)c3ccc(C)cc3)C2=O)c1`, the viability under setting [1] came to 107% and the viability (at 50 µM (top of the series)) was 101% (inactive). Further, the minimum viability (at 1.56 µM, stronger effect = lower value) is 90.5%.
In the case of `CC(C)NC(=O)c1sc(=S)n2c1[nH]c(=O)c1ccc(C(=O)NCCc3ccc(Cl)cc3)cc12`, under setting [1], the viability was determined as 104%. Further, the minimum viability (at 50 µM, stronger effect = lower value) was determined as 55.2%.
Turning to `CCOC(=O)c1sc(N2C(=O)C(O)=C(C(=O)c3ccc(C)o3)C2c2cccc([N+](=O)[O-])c2)nc1C` (stereo unspecified), under setting [1], the viability is 94.6%. In addition, the minimum viability (at 25 µM, stronger effect = lower value) amounted to 63.8%.
Take `COc1cc(/C=C2\C(=N)N3N=C(S(C)(=O)=O)SC3=NC2=O)cc(OC)c1OCCOc1cccc(C)c1`: the viability is, setting by setting: under setting [1], 120%; (at 50 µM (top of the series)) 82.5% (inactive). The minimum viability (at 50 µM, stronger effect = lower value) was 82.5%.
For `CCOC(=O)c1sc(N2C(=O)C(O)=C(C(=O)c3ccco3)C2c2ccc([N+](=O)[O-])cc2)nc1C` (stereo unspecified) the same measures were 124%, 80.3% (inactive) and 80.3%.
Take `Cc1ccc(F)c(NC(=O)/C(C#N)=C(\O)c2ccc(C(C)(C)C)cc2)c1`: the viability under setting [1] amounted to 101%. In addition, the minimum viability (at 50 µM, stronger effect = lower value) came to 76.4%.
Take `CCOc1cc(/C=C2\SC(=S)N(C(C(=O)O)c3ccccc3)C2=O)ccc1O` (stereo unspecified): the viability runs as follows: under setting [1], 90.8%; (at 50 µM (top of the series)) 96.9% (inactive). In addition, the minimum viability under setting [3] turned out to be 85.8%.
Consider `CC(C)(C)OC(=O)N1CCC(c2cc(=O)n3[nH]cc(C(=O)Nc4ccc(F)c(Cl)c4)c3n2)CC1`, for which the viability was 98.3% under setting [1] and 97.5% (inactive) (at 50 µM (top of the series)). In addition, for the setting “at 25 µM, stronger effect = lower value”, the minimum viability worked out at 88.7%.
Consider `Cc1ccc(NS(=O)(=O)c2ccc(N/N=C/c3ccccc3OCC(=O)O)c([N+](=O)[O-])c2)c(C)c1`, for which the viability runs as follows: under setting [1], 101%; (at 50 µM (top of the series)) 108% (inactive). In addition, the minimum viability under setting [2] came to 88.5%.
Regarding `O=C1NN(c2ccc(Cl)c(Cl)c2)C(=O)/C1=C/c1cccc(OC(=O)c2cccs2)c1`, the viability under setting [1] was determined as 111% and the viability (at 50 µM (top of the series)) was 90.3% (inactive). The minimum viability (at 25 µM, stronger effect = lower value) is 86.1%.
As to `N=C1/C(=C/c2ccc(-c3cccc(C(=O)O)c3)o2)C(=O)N=C2SC=C(c3ccccc3)N12`, the viability runs as follows: under setting [1], 104%; (at 50 µM (top of the series)) 85.3% (inactive). Moreover, the minimum viability (at 50 µM, stronger effect = lower value) stood at 85.3%.
For `O=C(O)c1cccc2c(-c3ccccc3)c(-c3ccccc3)[nH]c12` the same measures were 128%, 93.1% (inactive) and 93.1%.
`COc1cc(OC)c2c(O)c3c(c(-c4c5c(c(O)c6c(OC)cc(OC)cc46)CO[C@@H](C)[C@H]5O)c2c1)[C@H](O)[C@H](C)OC3`: the viability under setting [1] was determined as 102% and the viability (at 50 µM (top of the series)) was 103% (inactive). Also, under setting [4], the minimum viability was found to be 88.2%.
For `CC1=C(C#N)C(=O)NC(=O)/C1=C\c1ccc(-c2cc(C)c(C)cc2[N+](=O)[O-])o1` the same measures were 107%, 86.5% (inactive) and 83.3%.
Consider `Cc1cc(C)cc(-n2cccc2/C=C2/C(=N)N3C(=NC2=O)SN=C3S(C)(=O)=O)c1`, for which the viability reads like this: under setting [1], 116%; (at 50 µM (top of the series)) 96.8% (inactive). Moreover, the minimum viability (at 50 µM, stronger effect = lower value) is 96.8%.
For `Cc1ccccc1N=C1NC(=O)/C(=C/c2cccn2-c2cccc(C(=O)O)c2)S1`, the viability under setting [1] was found to be 90% and the viability (at 50 µM (top of the series)) is 94.2% (inactive). Moreover, the minimum viability under setting [4] worked out at 86.3%.
Consider `CC1=C(C(=O)OC(C)C)C(c2ccc(Cl)cc2)n2c(s/c(=C\c3ccc(OCC(=O)O)cc3)c2=O)=N1` (stereo unspecified), for which the viability under setting [1] came to 103%. The minimum viability (at 50 µM, stronger effect = lower value) came to 73.5%.
With `N#Cc1c(-c2ccccc2)nc(SCc2ccc(Cl)cc2)[nH]c1=O`, the viability is, setting by setting: under setting [1], 113%; (at 50 µM (top of the series)) 86.1% (inactive). In addition, the minimum viability (at 50 µM, stronger effect = lower value) turned out to be 86.1%.
Take `CCCCCc1c2c(cc(O)c1C(=O)O)OC(=O)c1c(cc(OC)cc1C(=O)CCCC)O2`: the viability is, setting by setting: under setting [1], 82%; (at 50 µM (top of the series)) 84.4% (inactive). Further, for the setting “at 50 µM, stronger effect = lower value”, the minimum viability came out at 84.4%.
As to `O=C(CCN1C(=O)/C(=C/c2ccco2)SC1=S)Nc1ccc(C(=O)O)c(O)c1`, the viability under setting [1] was determined as 108% and the viability (at 50 µM (top of the series)) was 90.6% (inactive). Moreover, the minimum viability under setting [4] stood at 83%.
